From patent US20110130380A1, “Heteroaryl Kinase Inhibitors” (priority 2009, published 2011) come the findings set out here.

The target in this test is Cdk9/cyclinT1 (Homo sapiens, UniProt P50750). As to the kind of experiment: Cdk9/cyclinT1 IMAP Protocol (fluorescence polarization kinase assay). To be noted: Cdk9_cyclinT1_IC50, Table V; generated using one of the two Cdk9/cyclinT1 assays (IMAP or Alpha Screen), not stated which; ATP 6 uM. For orientation: In fluorescence polarisation assays a small probe gives low polarisation when free and higher when bound to something large.

Broadly, the IC50 is the concentration at which inhibition is half-maximal. Low values mean inhibition by little substance, high ones a need for much substance.

Cdk9/cyclinT1, sequence (P50750 whole entry): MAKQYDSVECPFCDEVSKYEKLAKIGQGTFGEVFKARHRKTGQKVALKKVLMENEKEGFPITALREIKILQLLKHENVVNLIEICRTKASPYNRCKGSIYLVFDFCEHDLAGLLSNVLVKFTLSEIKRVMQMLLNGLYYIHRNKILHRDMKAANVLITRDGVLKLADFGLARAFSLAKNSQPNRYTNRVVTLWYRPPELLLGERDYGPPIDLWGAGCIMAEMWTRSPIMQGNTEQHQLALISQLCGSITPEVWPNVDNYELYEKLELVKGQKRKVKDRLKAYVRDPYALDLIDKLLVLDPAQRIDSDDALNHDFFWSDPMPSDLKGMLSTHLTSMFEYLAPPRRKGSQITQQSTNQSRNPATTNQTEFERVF
Cdk9/cyclinT1, sequence (O60563 whole entry partner): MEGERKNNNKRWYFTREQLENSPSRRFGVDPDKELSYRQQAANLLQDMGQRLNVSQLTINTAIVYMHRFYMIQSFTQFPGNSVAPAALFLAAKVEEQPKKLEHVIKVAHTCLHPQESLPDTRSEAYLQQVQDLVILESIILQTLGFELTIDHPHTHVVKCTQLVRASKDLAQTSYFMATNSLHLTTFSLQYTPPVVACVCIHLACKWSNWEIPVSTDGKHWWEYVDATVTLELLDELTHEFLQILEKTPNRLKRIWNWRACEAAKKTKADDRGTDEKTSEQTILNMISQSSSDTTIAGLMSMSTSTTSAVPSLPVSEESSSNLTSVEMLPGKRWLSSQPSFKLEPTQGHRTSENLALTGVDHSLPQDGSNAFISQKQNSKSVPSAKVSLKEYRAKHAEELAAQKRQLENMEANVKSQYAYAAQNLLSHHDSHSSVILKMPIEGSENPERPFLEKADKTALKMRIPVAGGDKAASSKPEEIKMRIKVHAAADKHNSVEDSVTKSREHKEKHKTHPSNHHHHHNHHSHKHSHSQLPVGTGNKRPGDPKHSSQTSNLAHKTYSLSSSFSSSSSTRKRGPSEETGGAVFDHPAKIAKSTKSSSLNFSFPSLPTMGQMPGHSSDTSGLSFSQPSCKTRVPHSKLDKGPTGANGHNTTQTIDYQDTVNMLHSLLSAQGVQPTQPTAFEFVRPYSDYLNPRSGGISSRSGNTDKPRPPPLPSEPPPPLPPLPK

`COC[C@H]1CC[C@H](C(=O)Nc2cc(-c3cccc(NCC4CCOCC4)n3)c(Cl)cn2)CN1` (single isomer, unassigned) [Example 236] registered an IC50 of 7 nM.
`CC[C@@H]1CC[C@@H](C(=O)Nc2cc(-c3cccc(NCC4CCOCC4)n3)c(Cl)cn2)CN1` (single isomer, unassigned) [Example 240]: the half-inhibitory concentration (IC50) stood at 1 nM.
The result for `CC[C@H]1CC[C@H](C(=O)Nc2cc(-c3cccc(NCC4CCOCC4)n3)c(Cl)cn2)CN1` (single isomer, unassigned) [Example 241] reads 9 nM; that for `C[C@@H]1CC[C@@H](C(=O)Nc2cc(-c3cccc(NC[C@@H]4CCOC(C)(C)C4)n3)c(Cl)cn2)CN1` (single isomer, unassigned) [Example 242], 1 nM.
Turning to `C[C@H]1CC[C@H](C(=O)Nc2cc(-c3cccc(NC[C@@H]4CCOC(C)(C)C4)n3)c(Cl)cn2)CN1` (single isomer, unassigned) [Example 243], the IC50 was 2 nM.
With `C[C@@H]1CC[C@@H](C(=O)Nc2cc(-c3cccc(NC[C@H]4CCOC(C)(C)C4)n3)c(Cl)cn2)CN1` (single isomer, unassigned) [Example 244] the figure was 1 nM; with `C[C@H]1CC[C@H](C(=O)Nc2cc(-c3cccc(NC[C@H]4CCOC(C)(C)C4)n3)c(Cl)cn2)CN1` (single isomer, unassigned) [Example 245], 6 nM.
Turning to `CC[C@@H]1CC[C@@H](C(=O)Nc2cc(-c3ccc(F)c(NCC4CCOCC4)n3)c(Cl)cn2)CN1` (single isomer, unassigned) [Example 256], the half-inhibitory concentration (IC50) came out at 1 nM.
On to `CC[C@H]1CC[C@H](C(=O)Nc2cc(-c3ccc(F)c(NCC4CCOCC4)n3)c(Cl)cn2)CN1` (single isomer, unassigned) [Example 257], for which the 50% inhibitory concentration (IC50) came out at 5 nM.
As to `CC1(C)COC[C@H](CNc2nc(-c3cc(NC(=O)[C@@H]4CCCNC4)ncc3Cl)ccc2F)O1` (single isomer, unassigned) [Example 262], half-maximal inhibition (IC50) required 3 nM.
In turn, `CC1(C)COC[C@@H](CNc2nc(-c3cc(NC(=O)[C@@H]4CCCNC4)ncc3Cl)ccc2F)O1` (single isomer, unassigned) [Example 263] came in with an IC50 of 1 nM.
Regarding `CC1(C)CO[C@@H](CNc2nc(-c3cc(NC(=O)[C@@H]4CCCNC4)ncc3Cl)ccc2F)CO1` (single isomer, unassigned) [Example 264], the half-inhibitory concentration (IC50) stood at 1 nM.
The compound `CC1(C)CO[C@H](CNc2nc(-c3cc(NC(=O)[C@@H]4CCCNC4)ncc3Cl)ccc2F)CO1` (single isomer, unassigned) [Example 265] gave an IC50 of 1 nM.
Compound `O=C(Nc1cc(-c2cccc(NCc3cccc(F)c3)n2)c(Cl)cn1)[C@@H]1CCCNC1` [Example 1, (R)-Piperidine-3-carboxylic acid [5′-chloro-6-(3-fluoro-benzylamino)-[2,4+]bipyridinyl-2′-yl]-amide] had an IC50 of less than 8 nM.
`O=C(Nc1cc(-c2cccc(NCc3cccc(F)c3)n2)c(Cl)cn1)C1CCCCC1` [Example 2, Cyclohexanecarboxylic acid [5′-chloro-6-(3-fluoro-benzylamino)-[2,4′]bipyridinyl-2′-yl]-amide] registered a half-inhibitory concentration (IC50) of 134 nM.
Compound `O=C(Nc1cc(-c2cccc(NCC3CCOCC3)n2)c(Cl)cn1)[C@@H]1CCCNC1` [Example 3, (R)-Piperidine-3-carboxylic acid {5′-chloro-6-[(tetrahydro-pyran-4-ylmethyl)-amino]-[2,4′]bipyridinyl-2′-yl}-amide] had an IC50 of 1 nM.
`O=C(Nc1cc(-c2cccc(NCc3cccc(F)c3)n2)c(Cl)cn1)[C@H]1CCCNC1` [Example 4, (S)-Piperidine-3-carboxylic acid [5′-chloro-6-(3-fluoro-benzylamino)-[2,4′]bipyridinyl-2′-yl]-amide]: half-maximal inhibition (IC50) was put at 17 nM.
The result for `CC(C)(C)OC(=O)N1CCC[C@H](C(=O)Nc2cc(-c3cccc(NCc4cccc(F)c4)n3)c(Cl)cn2)C1` [Example 5, (S)-3-[5′-Chloro-6-(3-fluoro-benzylamino)-[2,4′]bipyridinyl-2′-ylcarbamoyl]-piperidine-1-carboxylic acid tert-butyl ester] reads 62 nM.
`CC(C)(C)OC(=O)N1CCC[C@@H](C(=O)Nc2cc(-c3cccc(NCC4CCOCC4)n3)c(Cl)cn2)C1` [Example 6, (R)-3-{5′-Chloro-6-[(tetrahydro-pyran-4-ylmethyl)-amino]-[2,4′]bipyridinyl-2′-ylcarbamoyl}-piperidine-1-carboxylic acid tert-butyl ester] returned an IC50 of 92 nM.
As for `O=C(Nc1cc(-c2cccc(NCC3CCOCC3)n2)c(Cl)cn1)C1CCNCC1` [Example 7, Piperidine-4-carboxylic acid {5′-chloro-6-[(tetrahydro-pyran-4-ylmethyl)-amino]-[2,4′]bipyridinyl-2′-yl}-amide], the IC50 was found to be 14 nM.
For `O=C(Nc1cc(-c2cccc(NCC3CCOCC3)n2)c(Cl)cn1)[C@H]1CCCNC1` [Example 8, (S)-Piperidine-3-carboxylic acid {5′-chloro-6-[(tetrahydro-pyran-4-ylmethyl)-amino]-[2,4′]bipyridinyl-2′-yl}-amide], the IC50 stood at 46 nM.
`CCN1CCCC(C(=O)Nc2cc(-c3cccc(NCC4CCOCC4)n3)c(Cl)cn2)C1` (stereo not shown) [Example 9, 1-Ethyl-piperidine-3-carboxylic acid {5′-chloro-6-[(tetrahydro-pyran-4-ylmethyl)-amino]-[2,4′]bipyridinyl-2′-yl}-amide] came in with an IC50 of 144 nM.
In the case of `O=C(Nc1cc(-c2cccc(NCC3CCOCC3)n2)c(Cl)cn1)[C@@H]1CCCN(CCF)C1` [Example 10, (R)-1-(2-Fluoro-ethyl)-piperidine-3-carboxylic acid {5′-chloro-6-[(tetrahydro-pyran-4-ylmethyl)-amino]-[2,4′]bipyridinyl-2′-yl}-amide], the IC50 came out at 164 nM.
As for `O=C(Nc1cc(-c2cccc(NCC3CCOCC3)n2)c(Cl)cn1)[C@@H]1CCCN(CC(F)(F)F)C1` [Example 11, (R)-1-(2,2,2-Trifluoro-ethyl)-piperidine-3-carboxylic acid {5′-chloro-6-[(tetrahydro-pyran-4-ylmethyl)-amino]-[2,4′]bipyridinyl-2′-yl}-amide], the midpoint of inhibition, the IC50, lay at 770 nM.
The result for `O=C(Nc1cc(-c2cccc(NCC3CCS(=O)(=O)CC3)n2)c(Cl)cn1)[C@@H]1CCCNC1` [Example 12, (R)-piperidine-3-carboxylic acid {5′-chloro-6-[(1′,1′-dioxo-hexahydro-1-thiopyran-4-ylmethyl)-amino]-[2,4′]bipyridinyl-2′-yl}-amide] reads less than 8 nM; that for `O=C(Nc1cc(-c2cccc(NCC3CCOCC3)n2)c(Cl)cn1)C1CNCCO1` (stereo not shown) [Example 13, Morpholine-2-carboxylic acid {5′-chloro-6-[(tetrahydro-pyran-4-ylmethyl)-amino]-[2,4′]bipyridinyl-2′-yl}-amide], 16 nM; that for `O=C(Nc1cc(-c2cccc(NCC3CCOCC3)n2)ccn1)[C@@H]1CCCNC1` [Example 15, (R)-Piperidine-3-carboxylic acid {6-[(tetrahydro-pyran-4-ylmethyl)-amino]-[2,4′]bipyridinyl-2′-yl}-amide], less than 8 nM.
As to `COCCN1CCC[C@@H](C(=O)Nc2cc(-c3cccc(NCC4CCOCC4)n3)c(Cl)cn2)C1` [Example 16, (R)-1-(2-Methoxy-ethyl)-piperidine-3-carboxylic acid {5′-chloro-6-[(tetrahydro-pyran-4-ylmethyl)-amino]-[2,4′]bipyridinyl-2′-yl}-amide], the IC50 stood at 855 nM.
With `O=C(Nc1cc(-c2cccc(NCC3CCCCC3)n2)c(Cl)cn1)[C@@H]1CCCNC1` [Example 17, (R)-Piperidine-3-carboxylic acid [5′-chloro-6-(cyclohexylmethyl-amino)-[2,4′]bipyridinyl-2′-yl]-amide] the figure was less than 8 nM; with `O=C(Nc1cc(-c2cccc(NCC3CCCOC3)n2)c(Cl)cn1)[C@@H]1CCCNC1` (stereo partly drawn) [Example 18, (R)-Piperidine-3-carboxylic acid {5′-chloro-6-[(tetrahydro-pyran-3-ylmethyl)-amino]-[2,4′]bipyridinyl-2′-yl}-amide], less than 8 nM; with `O=C(Nc1cc(-c2cccc(NCC3CCCCCC3)n2)c(Cl)cn1)[C@@H]1CCCNC1` [Example 19, (R)-Piperidine-3-carboxylic acid [5′-chloro-6-(cycloheptylmethyl-amino)-[2,4′]bipyridinyl-2′-yl]-amide], less than 8 nM.
As to `O=C(Nc1cc(-c2cccc(NCC3CC3)n2)c(Cl)cn1)[C@@H]1CCCNC1` [Example 20, (R)-Piperidine-3-carboxylic acid [5′-chloro-6-(cyclopropylmethyl-amino)-[2,4′]bipyridinyl-2′-yl]-amide], the IC50 came to 44 nM.
Compound `CNc1cccc(-c2cc(NC(=O)[C@@H]3CCCNC3)ncc2Cl)n1` [Example 21, (R)-Piperidine-3-carboxylic acid (5′-chloro-6-methylamino-[2,4′]bipyridinyl-2′-yl)-amide] registered a 50% inhibitory concentration (IC50) of 76 nM.
In turn, `CC(C)CNc1cccc(-c2cc(NC(=O)[C@@H]3CCCNC3)ncc2Cl)n1` [Example 22, (R)-Piperidine-3-carboxylic acid (5′-chloro-6-isobutylamino-[2,4′]bipyridinyl-2′-yl)-amide] came in with a 50% inhibitory concentration (IC50) of 33 nM.
Consider `CC(C)CCNc1cccc(-c2cc(NC(=O)[C@@H]3CCCNC3)ncc2Cl)n1` [Example 23, (R)-Piperidine-3-carboxylic acid [5′-chloro-6-(3-methyl-butylamino)-[2,4′]bipyridinyl-2′-yl]-amide], for which the IC50 came out at 9 nM.
On to `O=C(Nc1cc(-c2cccc(NCC3COCCO3)n2)c(Cl)cn1)[C@@H]1CCCNC1` (stereo partly drawn) [Example 24, (R)-Piperidine-3-carboxylic acid {5′-chloro-6-[([1,4]dioxan-2-ylmethyl)-amino]-[2,4′]bipyridinyl-2′-yl}-amide], for which the half-maximal inhibitory concentration (IC50) is less than 8 nM.
For `O=C(Nc1cc(-c2cccc(NC[C@H]3CCCO3)n2)c(Cl)cn1)[C@@H]1CCCNC1` [Example 25, (R)-Piperidine-3-carboxylic acid (5′-chloro-6-{[(R)-1-(tetrahydro-furan-2-yl)methyl]-amino}-[2,4′]bipyridinyl-2′-yl)-amide], half-maximal inhibition (IC50) was put at 47 nM.
